pEC50, pIC50: −log10 of the molar value. Like-named read-outs stand apart in the source and are kept apart here.
What was measured:
NS3/NS4 complexes = NS3/NS4 complexes (Hepatitis C virus genotype 1a, UniProt P27958); assay: NS3/NS4 inhibition activity (IC50); format: biochemical
Outline: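 Buffer: 50 mM Tris-HCl (pH 7.5), 10 mM DTT, 25 μM NS4A peptide, 0.6 mM LDAO and 15% glycerol. Assays were run at 23 °C with preformed NS3/NS4 complex, and the compound concentration giving inhibition was derived as an IC50.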

hepatitis C replicon = hepatitis C replicon EC50; format: cell-based; conditions: Hepatitis C virus, hepatitis C replicon, read-out: EC50
Excerpt: NS3-NS4 inhibition activity can be determined using known assay methods.

Chain of NS3/NS4 complexes (P27958 1027-1657): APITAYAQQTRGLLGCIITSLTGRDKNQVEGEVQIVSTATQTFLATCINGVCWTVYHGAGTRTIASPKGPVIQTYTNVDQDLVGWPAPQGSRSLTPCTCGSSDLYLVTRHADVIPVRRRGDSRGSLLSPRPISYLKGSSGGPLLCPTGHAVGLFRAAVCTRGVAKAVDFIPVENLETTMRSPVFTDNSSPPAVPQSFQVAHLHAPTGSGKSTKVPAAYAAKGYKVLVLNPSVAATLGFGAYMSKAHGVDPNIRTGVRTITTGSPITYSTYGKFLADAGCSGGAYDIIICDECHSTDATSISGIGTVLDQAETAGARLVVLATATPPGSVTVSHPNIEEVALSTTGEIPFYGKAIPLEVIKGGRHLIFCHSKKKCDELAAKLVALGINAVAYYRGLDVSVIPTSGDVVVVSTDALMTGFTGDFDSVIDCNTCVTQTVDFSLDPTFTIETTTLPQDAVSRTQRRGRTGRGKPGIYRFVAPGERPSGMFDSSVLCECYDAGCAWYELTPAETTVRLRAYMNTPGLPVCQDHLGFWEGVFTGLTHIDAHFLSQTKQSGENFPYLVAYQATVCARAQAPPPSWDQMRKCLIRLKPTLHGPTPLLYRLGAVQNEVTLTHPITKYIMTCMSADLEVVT
Chain of NS3/NS4 complexes (P27958 1658-1711): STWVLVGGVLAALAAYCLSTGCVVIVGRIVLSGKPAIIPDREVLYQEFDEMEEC

Compound | pIC50 (NS3/NS4 complexes; Table 2, read-out: IC50) | pEC50 (hepatitis C replicon; Table 2) | pIC50 (NS3/NS4 complexes; Table 3, read-out: IC50) | pEC50 (hepatitis C replicon; Table 3)
CC(C)n1c(O[C@@H]2C[C@H]3C(=O)N[C@]4(C(=O)NS(=O)(=O)C5(C)CC5)C[C@H]4/C=C\CCCCC[C@H](Nc4ccccc4)C(=O)N3C2)nc2cc(F)ccc21 [Compound 468] | > 8.00 | > 8.00 | – | –
CC1(S(=O)(=O)NC(=O)[C@@]23C[C@H]2/C=C\CCCCC[C@H](Nc2cc(Cl)cc(Cl)c2)C(=O)N2C[C@H](Oc4nc5ccccc5s4)C[C@H]2C(=O)N3)CC1 [Compound 340] | > 8.00 | 7.12 to 8.00 | – | –
CS(=O)(=O)N(Cc1ccccc1)[C@H]1CCCCC/C=C\[C@@H]2C[C@@]2(C(=O)NS(=O)(=O)C2CC2)NC(=O)[C@@H]2C[C@@H](Oc3nc4ccccc4s3)CN2C1=O [Compound 317] | 6.30 to 7.12 | < 6.30 | – | –
CCn1c(O[C@@H]2C[C@H]3C(=O)N[C@]4(C(=O)O)C[C@H]4/C=C\CCCCC[C@H](Nc4cc(F)cc(C(F)(F)F)c4)C(=O)N3C2)nc2ccccc21 [Compound 318] | > 8.00 | < 6.30 | – | –
CC1(S(=O)(=O)NC(=O)[C@@]23C[C@H]2/C=C\CCCCC[C@H](Nc2cccc(C#N)c2)C(=O)N2C[C@H](OC(=O)N4Cc5cccc(F)c5C4)C[C@H]2C(=O)N3)CC1 [Compound 1113] | – | – | > 8.00 | 7.00 to 8.00
COc1ccc2c(O[C@@H]3C[C@H]4C(=O)N[C@]5(C(=O)NS(=O)(=O)N6CCCCC6)C[C@H]5/C=C\CCCCC[C@H](Nc5ccccc5)C(=O)N4C3)cc(-c3nc(C(C)C)cs3)nc2c1C [Compound 456] | > 8.00 | 7.12 to 8.00 | – | –
CC(C)(C)OC(=O)N[C@H]1CCCCC/C=C\[C@@H]2C[C@@]2(C(=O)NCCC(=O)NCc2ccccc2)NC(=O)[C@@H]2C[C@@H](OC(=O)N3Cc4cccc(F)c4C3)CN2C1=O [Compound 1052] | – | – | < 7.00 | < 7.00
COc1cccc(N[C@H]2CCCCC/C=C\[C@@H]3C[C@@]3(C(=O)NS(=O)(=O)C3(C)CC3)NC(=O)[C@@H]3C[C@@H](Oc4nc5ccccc5s4)CN3C2=O)c1 [Compound 244] | > 8.00 | 7.12 to 8.00 | – | –
CC(C)(C)OC(=O)N[C@H]1CCCCC/C=C\[C@@H]2C[C@@]2(C(=O)NS(=O)(=O)C2CC2)NC(=O)[C@@H]2C[C@@H](Oc3nc4ccc(Br)cc4s3)CN2C1=O [Compound 1012] | – | – | > 8.00 | > 8.00
CC1(S(=O)(=O)NC(=O)[C@@]23C[C@H]2/C=C\CCCCC[C@H](Nc2ccc(C(F)(F)F)cc2)C(=O)N2C[C@H](Oc4nc5ccccc5s4)C[C@H]2C(=O)N3)CC1 [Compound 330] | > 8.00 | 6.30 to 7.12 | – | –
CN(C)S(=O)(=O)NC(=O)[C@@]12C[C@H]1/C=C\CCCCC[C@H](NC(=O)OC(C)(C)C)C(=O)N1C[C@H](Oc3nc4ccccc4n3C3CCCC3)C[C@H]1C(=O)N2 [Compound 1141] | – | – | > 8.00 | > 8.00
CC(C)(C)OC(=O)N[C@H]1CCCCC/C=C\[C@@H]2C[C@@]2(C(=O)NS(=O)(=O)C2(C)CC2)NC(=O)[C@@H]2C[C@@H](OC(=O)N3CCCC3)CN2C1=O [Compound 1072] | – | – | > 8.00 | < 7.00
COc1ccc2c(O[C@@H]3C[C@H]4C(=O)N[C@]5(C(=O)NS(=O)(=O)N(C)C)C[C@H]5/C=C\CCCCC[C@H](Nc5ccc(C(F)(F)F)cc5)C(=O)N4C3)cc(-c3nc(C(C)C)cs3)nc2c1C [Compound 458] | > 8.00 | 7.12 to 8.00 | – | –
Cc1ccc2c(c1)nc(O[C@@H]1C[C@H]3C(=O)N[C@]4(C(=O)NS(=O)(=O)N(C)C)C[C@H]4/C=C\CCCCC[C@H](NC(=O)OC(C)(C)C)C(=O)N3C1)n2C(C)C [Compound 1137] | – | – | > 8.00 | > 8.00
O=C1N[C@]2(C(=O)O)C[C@H]2/C=C\CCCCC[C@H](Nc2ccc(-c3ccccc3)cc2)C(=O)N2C[C@H](Oc3nc4ccccc4s3)C[C@@H]12 [Compound 325] | 6.30 to 7.12 | < 6.30 | – | –
COc1ccc2c(O[C@@H]3C[C@H]4C(=O)N[C@]5(C(=O)NS(=O)(=O)N(C)C)C[C@H]5/C=C\CCCCC[C@H](Nc5cc(F)cc(C(F)(F)F)c5)C(=O)N4C3)cc(-c3nc(C(C)C)cs3)nc2c1C [Compound 460] | > 8.00 | > 8.00 | – | –
Cc1ccc2nc(O[C@@H]3C[C@H]4C(=O)N[C@]5(C(=O)NS(=O)(=O)C6(C)CC6)C[C@H]5/C=C\CCCCC[C@H](Nc5ccccc5)C(=O)N4C3)sc2c1 [Compound 218] | > 8.00 | 6.30 to 7.12 | – | –
CC1(S(=O)(=O)NC(=O)[C@@]23C[C@H]2/C=C\CCCCC[C@H](Nc2ccccc2F)C(=O)N2C[C@H](Oc4nc5ccccc5s4)C[C@H]2C(=O)N3)CC1 [Compound 339] | > 8.00 | 6.30 to 7.12 | – | –

Compound | pIC50 (NS3/NS4 complexes; Table 2, read-out: IC50) | pEC50 (hepatitis C replicon; Table 2) | pIC50 (NS3/NS4 complexes; Table 3, read-out: IC50) | pEC50 (hepatitis C replicon; Table 3)
CC(C)n1c(O[C@@H]2C[C@H]3C(=O)N[C@]4(C(=O)NS(=O)(=O)N(C)C)C[C@H]4/C=C\CCCCC[C@H](NC(=O)OC(C)(C)C)C(=O)N3C2)nc2cccc(F)c21 [Compound 1134] | – | – | > 8.00 | > 8.00
COc1ccc2c(O[C@@H]3C[C@H]4C(=O)N[C@]5(C(=O)NS(=O)(=O)N(C)C)C[C@H]5/C=C\CCCCC[C@H](Nc5cccc(C(F)(F)F)c5)C(=O)N4C3)cc(-c3nc(C(C)C)cs3)nc2c1C [Compound 457] | > 8.00 | > 8.00 | – | –
CC(C)(C)OC(=O)N[C@H]1CCCCC/C=C\[C@@H]2C[C@@]2(C(=O)NCCC(=O)NCc2ccccc2)NC(=O)[C@@H]2C[C@@H](O)CN2C1=O [Compound 1058] | – | – | < 7.00 | < 7.00
CCn1c(O[C@@H]2C[C@H]3C(=O)N[C@]4(C(=O)NS(=O)(=O)C5(C)CC5)C[C@H]4CCCCCCC[C@H](Nc4cc(F)cc(C(F)(F)F)c4)C(=O)N3C2)nc2ccccc21 [Compound 466] | > 8.00 | 6.30 to 7.12 | – | –
COc1ccc2c(O[C@@H]3C[C@H]4C(=O)N[C@]5(C(=O)O)C[C@H]5/C=C\CCCCC[C@H](Nc5cc(F)cc(C(F)(F)F)c5)C(=O)N4C3)cc(-c3ccccc3)nc2c1 [Compound 354] | > 8.00 | 6.30 to 7.12 | – | –
CC(C)n1c(O[C@@H]2C[C@H]3C(=O)N[C@]4(C(=O)NS(=O)(=O)C5(C)CC5)C[C@H]4/C=C\CCCCC[C@H](NC(=O)OC(C)(C)C)C(=O)N3C2)nc2ccccc21 [Compound 1077] | – | – | > 8.00 | > 8.00
CC(C)(C)OC(=O)N[C@H]1CCCCC/C=C\[C@@H]2C[C@@]2(C(=O)NS(=O)(=O)C2(C)CC2)NC(=O)[C@@H]2C[C@@H](Oc3nc4ccc(Br)cc4s3)CN2C1=O [Compound 1013] | – | – | > 8.00 | > 8.00
COc1ccc2c(O[C@@H]3C[C@H]4C(=O)N[C@]5(C(=O)NS(=O)(=O)C6(C)CC6)C[C@H]5/C=C\CCCCC[C@H](Nc5nc6ccccc6o5)C(=O)N4C3)cc(-c3nc(C(C)C)cs3)nc2c1C [Compound 379] | > 8.00 | > 8.00 | – | –
CC(C)(C)c1csc(N[C@H]2CCCCC/C=C\[C@@H]3C[C@@]3(C(=O)O)NC(=O)[C@@H]3C[C@@H](Oc4nc5ccccc5s4)CN3C2=O)n1 [Compound 119] | 7.12 to 8.00 | < 6.30 | – | –
CC1(S(=O)(=O)NC(=O)[C@@]23C[C@H]2/C=C\CCCCC[C@H](Nc2cccc(Cl)c2)C(=O)N2C[C@H](Oc4nc5ccccc5s4)C[C@H]2C(=O)N3)CC1 [Compound 337] | > 8.00 | 6.30 to 7.12 | – | –
Cc1cccc(N[C@H]2CCCCC/C=C\[C@@H]3C[C@@]3(C(=O)NS(=O)(=O)C3(C)CC3)NC(=O)[C@@H]3C[C@@H](OC(=O)N4Cc5cccc(F)c5C4)CN3C2=O)c1 [Compound 1103] | – | – | > 8.00 | > 8.00
O=C1N[C@]2(C(=O)NS(=O)(=O)C3CC3)C[C@H]2/C=C\CCCCC[C@H](Nc2ccc(F)c(C(F)(F)F)c2)C(=O)N2C[C@H](Oc3nccc4ccccc34)C[C@@H]12 [Compound 375] | > 8.00 | > 8.00 | – | –
CC(C)(C)OC(=O)N[C@H]1CCCCC/C=C\[C@@H]2C[C@@]2(C(=O)O)NC(=O)[C@@H]2C[C@@H](Oc3nc4ccccc4s3)CN2C1=O [Compound 1001] | – | – | 7.00 to 8.00 | < 7.00
CC1(S(=O)(=O)NC(=O)[C@@]23C[C@H]2/C=C\CCCCC[C@H](Nc2ccccc2)C(=O)N2C[C@H](Oc4nc5ccc(Cl)cc5s4)C[C@H]2C(=O)N3)CC1 [Compound 217] | > 8.00 | 6.30 to 7.12 | – | –
CC(=O)Nc1cccc(N[C@H]2CCCCC/C=C\[C@@H]3C[C@@]3(C(=O)NS(=O)(=O)C3(C)CC3)NC(=O)[C@@H]3C[C@@H](OC(=O)N4Cc5cccc(F)c5C4)CN3C2=O)c1 [Compound 1110] | – | – | > 8.00 | 7.00 to 8.00
CC(=O)O[C@@H]1C[C@H]2C(=O)N[C@]3(C(=O)NS(=O)(=O)C4CC4)C[C@H]3/C=C\CCCCC[C@H](NC(=O)OC(C)(C)C)C(=O)N2C1 [Compound 1071] | – | – | > 8.00 | < 7.00
CC1(S(=O)(=O)NC(=O)[C@@]23C[C@H]2/C=C\CCCCC[C@H](Nc2cc(F)cc(C(F)(F)F)c2)C(=O)N2C[C@H](Oc4nc(-c5ccccc5)cs4)C[C@H]2C(=O)N3)CC1 [Compound 396] | > 8.00 | < 6.30 | – | –
CC(C)n1c(O[C@@H]2C[C@H]3C(=O)N[C@]4(C(=O)NS(=O)(=O)C5(C)CC5)C[C@H]4/C=C\CCCCC[C@H](Nc4ccccc4)C(=O)N3C2)nc2cccc(F)c21 [Compound 467] | > 8.00 | 7.12 to 8.00 | – | –
